From patent US8420607B2 (priority 2006, dated 2013)

Key:
[1] = tested on: rabbit anti-live spore B. anthracis Sterne 34F2 antiserum; format: binding
[2] = tested on: rabbit anti-irradiated spore B. anthracis Sterne 34F2 antiserum; format: binding
[3] = tested on: anti-anthrose IgG in rhesus macaque sera; format: binding, rhesus macaques
[4] = tested on: rabbit anti-B. anthracis live spore antiserum IgG; format: binding
[5] = tested on: rabbit anti-spore serum (live spore antiserum); format: binding
[6] = tested on: IgG antibodies of rabbit anti-live spore, anti-irradiated spore and anti-polysaccharide-KLH antisera; format: binding

In the case of `CO[C@H]1[C@H](O[C@@H]2[C@@H](O)[C@H](C)O[C@@H](O[C@@H]3[C@@H](O)[C@H](C)O[C@@H](OCCCN)[C@@H]3O)[C@@H]2O)O[C@H](C)[C@@H](NC(=O)CC(C)(C)O)[C@@H]1O` [trisaccharide 1, 3-aminopropyl O-(4-(3-hydroxy-3-methylbutamido)-2-O-methyl-4,6-dideoxy-β-D-glucopyranosyl)-(1→3)-O-(α-L-rhamnopyranosyl)-(1→3)-α-L-rhamnopyranoside], the “Drop in OD by competing free trisaccharide” value [1] is reported as “significant drop in OD”, the “Inhibition of interaction of antisera from rabbits immunized with irradiated spores” value [2] is reported as “could also be inhibited in a dose response manner” and the “Inhibition of anti-anthrose response measured by ELISA” value [3] is reported as “specifically inhibited”. For the same compound, the “Inhibition of serum binding to KLH-A-3” value [3] was “inhibited binding”, the “Inhibition of serum binding to KLH-conjugated trisaccharide” value [3] was “Binding could be specifically inhibited” and the “Inhibition of antiserum binding to B. anthracis Pasteur HF-PS-BSA” value [4] was “no inhibition was observed”.

In the case of maltoheptaose [reference compound], the “Inhibition of antiserum binding to B. anthracis HF-PS-BSA” value [5] is reported as “no significant inhibition”.

`COC1C(OC2C(O)C(C)OC(OC3C(O)C(C)OC(OCCCN)C3O)C2O)OC(C)C(NC(=O)CC(C)C)C1O` [trisaccharide 3, 3-aminopropyl O-(4-(3-methylbutamido)-2-O-methyl-4,6-dideoxy-β-D-glucopyranosyl)-(1-→3)-O-(α-L-rhamnopyranosyl)-(1→3)-α-L-rhamnopyranoside] was tested, and the “Reduction in reporter signal (OD) compared to the control” value [1] was 85%.

For `CC1OC(OC2C(O)C(C)OC(OCCCN)C2O)C(O)C(OC2OC(C)C(NC(=O)CC(C)(C)O)C(O)C2O)C1O` [trisaccharide 2, 3-aminopropyl O-(4-(3-hydroxy-3-methylbutamido)-4,6-dideoxy-β-D-glucopyranosyl)-(1→3)-O-(α-L-rhamnopyranosyl)-(1→3)-α-L-rhamnopyranoside], the “Relative recognition by antibodies elicited by the live spore vaccine” value [6] was “recognized trisaccharide 2 much better than 1”.

`COC1C(OC2C(O)C(C)OC(OC3C(O)C(C)OC(OCCCN)C3O)C2O)OC(C)C(NC(C)=O)C1O` [analogue 4, 3-aminopropyl O-(4-acetamido-2-O-methyl-4,6-dideoxy-β-D-glucopyranosyl)-(1→3)-O-(α-L-rhamnopyranosyl)-(1→3)-β-L-rhamnopyranoside] was tested, and the “Reduction in reporter signal (OD) compared to the control” value [1] was 17%.
